Measured values taken from patent US10294476B2, “NEAT1 as a prognostic marker and therapeutic target for prostate cancer” (CORNELL UNIVERSITY, priority 2014, dated 2019).

Experiments:
Assay type in all cases: cell-based
NEAT1 = NEAT1 expression (qRT-PCR) in treated prostate cancer cell lines; settings: for NEAT1 expression: VCaP cells
Description: Cell culture and treatments: LnCaP and PC3 cells were grown in RPMI 1640 (Invitrogen) and supplemented with 10% fetal bovine serum (FBS) and 1% penicillin-streptomycin. RWPE1 cells were grown in Keratinocyte Serum Free Medium (K-SFM), Kit (Gibco, #17005-042). VCaP and DU145 cells were grown in DMEM (Invitrogen) and supplemented with 10% fetal bovine serum (FBS) with 1% penicillin streptomycin. NCI-H660 cells were grown in RPMI 1640 supplemented with 0.005 mg/ml insulin, 0.01 mg/ml transferrin, 30 nM sodium selenite, 10 nM hydrocortisone, 10 nM β-estradiol, 5% FBS, 1% penicillin-streptomycin and an extra 2 mM of L-glutamine (for a final concentration of 4 mM). For cell treatments in several experiments, the inventors used 10-100 nM β-estradiol (Sigma Aldrich), 10 μM Enzalutamide (Astellas), 10 μM bicalutamide (Sigma Aldrich), 1-10 nM R1881 (PE Biosystems), 10-100 nM 4-hydroxy tamoxifen (4OHT) (Sigma Aldrich), 1-10 μM ICI […] (Tocris Bioscience).
RNA isolation, cDNA synthesis and PCR experiments: Total RNA was isolated from frozen prostate tissue samples (for qPCR) and cell lines (for transcriptome sequencing and qPCR) using Trizol (Invitrogen) with DNase I digestion according to manufacturer's instructions. RNA integrity was verified on an Agilent Bioanalyzer 2100 (Agilent Technologies). cDNA was synthesized from total RNA using Superscript III (Invitrogen) and random primers (Invitrogen). Quantitative RT-PCR was performed using Power SYBR Green Mastermix (Applied Biosystems) on an Applied Biosystems 7900 Fast Real Time PCR machine. All primers were designed using Primer 3 and synthesized by Integrated DNA Technologies.
To test this hypothesis in vitro, the inventors evaluated the effect of anti-estrogens and anti-androgens on NEAT1 levels in prostate cancer cell lines.

NEAT1 promoter = NEAT1 promoter luciferase reporter assay; settings: VCaP cells with ERα expression, -/+ E2 (10 nM) 24 hr
Excerpt: Luciferase reporter assays: For ERE luciferase assays, VCaP cells were transiently transfected with the (ERE)3-5V40-luc reporter plasmid and/or ERα and/or AR as well as an internal control construct pRL harboring the renilla luciferase gene. VCaP cells were also transfected with empty vector or NEAT1 promoter (1+2) luciferase reporter constructs alone or with ERα as well as an internal control construct pRL harboring renilla luciferase gene. In order to determine the PSMA reporter activity, 293T cells and PC3 cells were co transfected with empty vector or PSMA luc and Renilla-luc reporter genes alone or with NEAT1, NEAT1+ERα, or NEAT1+AR.
[…] At 48 h cells were lysed with passive lysis buffer and luciferase activities were measured using the dual luciferase system (#E1910, Promega) and normalized with renilla luciferase activity.
The inventors inspected our ERα ChIP-seq data in VCaP ERα and NCI-H660 cells and identified two ERα binding sites on the NEAT1 promoter (FIG. 2d). […] ERα recruitment to specific regions of the NEAT1 promoter was independently validated by ERα ChIP in VCaP, VCaP ERα and NCI-H660 cells (FIG. 2e) using specific primers encompassing ERα binding sites in the NEAT1 promoter. […]

VCaP cells [1] = test: Cell invasion assay (CHEMICON kit); settings: E2 (10 nM), 48 hrs
Description: Invasion assay: The CHEMICON cell invasion assay kit (EMD MIlipore) was used for determining the cell invasion. Cells were serum-starved for 48 hours and then seeded at a density of 2×10^5 cells/well in the upper well of the invasion chamber. 500 μl of phenol res free DMEM media supplemented with 8% charcoal stripped serum and 10 nM E2 was added to the lower chamber. After 48-hour incubation, the invaded cells were stained by dipping the inserts in the staining solution for 20 minutes. The stained cells were then dissolved in 10% acetic acid and transferred to a 96-well plate for colorimetric reading of OD at 560 nm.

VCaP cells [2] = test: Colony-forming assay in NEAT1-overexpressing VCaP cells; settings: NEAT1-overexpressing VCaP cells with vs without E2 (10 nM), 21 days
Description: Soft agar assays were performed in both VCaP and VCaP NEAT1 cells. Colonies were monitored over a period of 21 days. […] These in vitro assays establish an oncogenic role for NEAT1.

[3] = ERα antagonist alone for longer periods
[4] = ERα antagonist in combination with E2 (10 nM)

Row | Molecule | NEAT1 expression (NEAT1; [3]) | NEAT1 expression (NEAT1; [4]) | NEAT1 promoter activity (NEAT1 promoter) | NEAT1 transcript levels (NEAT1; panel of prostate cancer cell lines, ERα overexpression and E2 treatment (10 nM), different time points) | invasive potential (VCaP cells [1]) | number of colonies (VCaP cells [2])
1 | 4-hydroxy tamoxifen [4OHT] | enhance NEAT1 expression | constrained | – | – | – | –
2 | C[C@]12CC[C@@H]3c4ccc(O)cc4C[C@@H](CCCCCCCCC[S+]([O-])CCCC(F)(F)C(F)(F)F)[C@H]3[C@@H]1CC[C@@H]2O (some centres unmarked) [ICI 182,720] | enhance NEAT1 expression | constrained | – | – | – | –
3 | β-estradiol [E2] | – | – | further enhanced | upregulated NEAT1 transcript levels in a time-dependent manner | ligand-dependent modulation of invasive potential | significantly increased the number of colonies
